{"source": "patent US20230217875A1", "about": "“IN VITRO EMBRYO RESCUE” (priority 2020, published 2023)", "key": {"[1]": {"tested_on": "Triploid Arabidopsis thaliana (Col-0) embryos", "assay": "in vitro embryo rescue of interploidy hybridization (Col 2x x Col 4x), embryo survival", "type": "cell-based", "conditions": "for embryo appearance and growth: MS medium supplemented with the sugar, majority of triploid embryos (FIGS. 1C-1H)", "experimental": "(§1) Seeds of Arabidopsis and Capsella were surface sterilized (5% sodium hypochlorite, 0.05% Triton X-100) for 10 min, washed three times in sterile ddH2O and then plated on half Murashige and Skoog (MS) medium, i.e., MS medium as defined below but half the concentration of the included ingredients. After stratification for 3 day at 4° C., plants were grown in a growth room under long-day photoperiod (16 hours light and 8 hours darkness) at 22° C. Eight-day-old seedlings were transferred to soil and plants were grown in a growth room at 60% humidity and daily cycles of 16 hours light at 22° C. and 8 hours darkness at 18° C. For crosses, designated female flower buds were emasculated, and the pistils hand-pollinated at 2 days after emasculation.\n(§2) • 70% Ethanol; • Sterilizing solution (5% sodium hypochlorite+0.01% (v/v) of Triton X-100 or TWEEN® 20); • Autoclaved water; • Murashige & Skoog (MS) medium (Murashige and Skoog 1962): MS basal salt mixture 4.4 g/L, 0.7% plant agar, pH 5.8 and vitamins (glycine 2 mg/I, myo-inositol 100 mg/I, nicotinic acid 0.5 mg/I, pyridoxine HCl 0.5 mg/I and thiamine HCl 0.1 mg/I); • Nitsch medium (Nitsch & Nitsch 1969): basal salt mixture 2.1 g/L, 0.7% plant agar, pH 5.8 and vitamins (biotin 0.05 mg/I, folic acid 0.5 mg/I, glycine 2 mg/I, myo-inositol 100 mg/I, nicotinic acid 5 mg/I, pyridoxine HCl 0.5 mg/I and thiamine HCl 0.5 mg/I);\n(§3) Triploid Arabidopsis seeds were derived from crossing diploid Arabidopsis females with tetraploid Arabidopsis pollen donors. Interspecific hybrid Capsella seeds were derived from crossing Capsella rubella females with Capsella grandiflora pollen donors. Hybrid embryos were isolated at the torpedo stage, at around 8 to 9 days after pollination (DAP) for Arabidopsis and 9 to 10 DAP for Capsella.\nUnder a sterile hood, the siliques of the crosses were incubated for 30 s in 70% ethanol, 30 s in sterilizing solution and 30 s in sterile water. […] Under a dissection microscope, the silique was opened with fine needles, and all seeds were transferred on the wet filter paper. The embryos were gently dissected and placed on the filter paper. During the dissection, the embryos and seeds should not become desiccated. The plates were sealed with Millipore tape and incubated under long-day photoperiod (16 hours light and 8 hours darkness) at 22° C.\nAfter 5-7 days culture on MS medium with trehalose for Arabidopsis or 7-10 days for Capsella, viable embryos could be recognized by their green color and increased size that corresponded to the size of embryos at the bent cotyledon stage (FIG. 1J). Viable embryos were then transferred to Nitsch medium containing lower concentrations of trehalose, 1.5% (w/v) for Arabidopsis, 3% (w/v) for Capsella. Embryos were transferred from MS medium to Nitsch medium after two weeks. Transfer to Nitsch medium reduced vitrification, which is a frequently occurring phenomenon in tissue-cultured plants causing excessive hydration of tissues and reducing survival rate. Continued growth on MS medium for 3 weeks caused vitrification in Arabidopsis and Capsella seedlings (FIGS. 1L, 2I), but this phenomenon was suppressed by transfer to Nitsch medium (FIGS. 1M, 2J). After about two weeks of incubation, the initiation of roots could be observed (FIG. 1K) and the plantlets could be transferred to soil and continued to grow under long-day photoperiod (16 h light/8 h dark) at 22° C. in a growth room. […]"}, "[2]": {"tested_on": "Hybrid embryos of Capsella (Capsella rubella×Capsella grandiflora)", "assay": "in vitro embryo rescue of interspecies hybrids, embryo survival", "type": "cell-based", "conditions": "for effect on embryo survival: MS medium supplemented with the sugar (FIG. 2A); for embryo appearance and growth: MS medium supplemented with the sugar, majority of embryos (FIGS. 2C-2H)", "experimental": "as §1, §2, §3\nUnder a sterile hood, the siliques of the crosses were incubated for 30 s in 70% ethanol, 30 s in sterilizing solution and 30 s in sterile water. The siliques were placed on MS medium supplemented with 3% (w/v) trehalose overlaid with a filter paper and several drops of sterile liquid MS medium were added on the silique. Under a dissection microscope, the silique was opened with fine needles, and all seeds were transferred on the wet filter paper. The embryos were gently dissected and placed on the filter paper. During the dissection, the embryos and seeds should not become desiccated. The plates were sealed with Millipore tape and incubated under long-day photoperiod (16 hours light and 8 hours darkness) at 22° C.\nAfter 5-7 days culture on MS medium with trehalose for Arabidopsis or 7-10 days for Capsella, viable embryos could be recognized by their green color and increased size that corresponded to the size of embryos at the bent cotyledon stage (FIG. 1J). Viable embryos were then transferred to Nitsch medium containing lower concentrations of trehalose, 1.5% (w/v) for Arabidopsis, 3% (w/v) for Capsella. Embryos were transferred from MS medium to Nitsch medium after two weeks. Transfer to Nitsch medium reduced vitrification, which is a frequently occurring phenomenon in tissue-cultured plants causing excessive hydration of tissues and reducing survival rate. Continued growth on MS medium for 3 weeks caused vitrification in Arabidopsis and Capsella seedlings (FIGS. 1L, 2I), but this phenomenon was suppressed by transfer to Nitsch medium (FIGS. 1M, 2J). After about two weeks of incubation, the initiation of roots could be observed (FIG. 1K) and the plantlets could be transferred to soil and continued to grow under long-day photoperiod (16 h light/8 h dark) at 22° C. in a growth room.\nTo rescue interspecific hybrids of Capsella, the protocol was the same as above for A. thaliana but with minor changes for the trehalose concentration. Hybrid embryos of Capsella (Capsella rubella×Capsella grandiflora) were dissected at the torpedo stage under a stereomicroscope under sterile conditions on a laminar flow bench. […]"}, "[3]": {"tested_on": "rice triploid embryos", "assay": "rescue of triploid rice embryos, embryo survival", "type": "cell-based, Oryza sativa L. cv. Suitou nourin 8", "experimental": "To obtain triploids of cultivated rice (Oryza sativa L. cv. Suitou nourin 8), diploid plants (JP9838) were emasculated and pollinated with pollen from tetraploid plants (JP7525). Triploid hybrid embryos were dissected under sterile conditions at 10-12 days after pollination (DAP) under a stereomicroscope. The isolated embryos were cultured in vitro on MS medium supplemented with 1.5% (w/v, 43.8 mM) trehalose together with sucrose (1.5%) and compared to MS medium supplemented with only sucrose (3%). […] The viable triploid embryos were transferred to MS medium containing lower concentrations of trehalose (0.75% w/v) together with 2.25% (w/v) sucrose for two weeks, until the initiation of roots could be observed (FIG. 3F). The plantlets were transferred to soil and their ploidy levels were validated by flow cytometry.\nCultivated rice (Oryza sativa L. cv. Suitou nourin 8, diploid, JP9838, and cv. Suitou nourin 8, tetraploid, JP7525) seeds were obtained from the National Institute of Agrobiological Sciences in Japan (http://www.gene.affrc.go.jp). Rice seeds were grown on soil and cultivated in a phytotron. Cultivating conditions were 14 h light and 10 h dark at 30° C./21° C. with a constant humidity of 80% and light intensity of 400 μmol per m^−2 s^−1. For crossing, designated diploid plants were emasculated and pollination was performed immediately after emasculation.\nUnder a sterile hood, immature triploid rice seeds at 10-12 DAP were dehusked using a pair of tweezers and sterilized for 2 min in 70% ethanol, followed by 15 min in 5% sodium hypochlorite with gentle mixing, 2 min in sterile water. The seeds were placed on MS medium supplemented with 1.5% (w/v) trehalose together with 1.5% (w/v) sucrose overlaid with a filter paper. Under a dissection microscope, the seed coat was removed with fine needles, and dissected embryos were transferred on the wet filter paper. During the dissection, the embryos should not become desiccated. The plates were sealed with Millipore tape and incubated under long-day photoperiod (16 hours light and 8 hours darkness) at 22° C. After 5-7 days of culture on MS medium with trehalose, viable embryos could be recognized by their light green color and increased size (FIG. 3E), compared to aborted embryos with dark brown color (FIG. 3D). Viable embryos were then transferred to MS medium containing lower concentrations of trehalose, 0.75% (w/v) together with 2.25% (w/v) sucrose. After about two weeks of incubation, the initiation of roots could be observed (FIG. 3F) and the plantlets could be transferred to soil and grows in a phytotron."}, "[4]": {"conditions": "MS medium with only sucrose (3%)"}}}
{"smiles": "O=C(CO)[C@@H](O)[C@H](O)[C@H](O)CO", "note": "[fructose]", "values": [{"measurement": "embryo appearance and growth", "setting": "[1]", "value": "turned from light green to white and growth was arrested"}, {"measurement": "effect on embryo survival", "setting": "[2]", "value": "did not improve embryo survival"}, {"measurement": "embryo appearance and growth", "setting": "[2]", "value": "turned from light green to white and growth was arrested"}]}
{"smiles": "OC[C@H]1O[C@H](O[C@H]2O[C@H](CO)[C@@H](O)[C@H](O)[C@H]2O)[C@H](O)[C@@H](O)[C@@H]1O", "note": "[trehalose]", "values": [{"measurement": "embryo survival rate", "setting": "[1]; MS medium supplemented with 3% (w/v) sugar, embryos at torpedo stage, 14 days of in vitro culture (FIG. 1A)", "value": "over 70%"}, {"measurement": "highest survival rate", "setting": "[1]; plates containing 2% (w/v) trehalose, 14 days (FIG. 1B)", "value": "over 90%"}, {"measurement": "embryos survived", "setting": "[3]; MS medium with 1.5% (w/v) trehalose together with sucrose (1.5%), after one week of culture", "value": "Around 30%"}, {"measurement": "embryo appearance", "setting": "[3]; MS medium with 1.5% trehalose together with 1.5% sucrose, after one week", "value": "turning light green"}, {"measurement": "hybrid embryos rescued (survival rate)", "setting": "[2]; MS medium supplemented with 3% (w/v) sugar, 14 days (FIG. 2A)", "value": 80, "unit": "%"}, {"measurement": "highest survival rate", "setting": "[2]; plates containing 6% trehalose, 14 days (FIG. 2B)", "value": "over 90%"}]}
{"smiles": "OC[C@H]1O[C@@](CO)(O[C@H]2O[C@H](CO)[C@@H](O)[C@H](O)[C@H]2O)[C@@H](O)[C@@H]1O", "note": "[sucrose]", "values": [{"measurement": "embryo appearance and growth", "setting": "[1]", "value": "turned from light green to white and growth was arrested"}, {"measurement": "embryo appearance and growth", "setting": "[3]; [4]", "value": "arrested growth and turned dark brown"}, {"measurement": "embryos survived", "setting": "[3]; [4]", "value": "none"}, {"measurement": "effect on embryo survival", "setting": "[2]", "value": "did not improve embryo survival"}, {"measurement": "embryo appearance and growth", "setting": "[2]", "value": "turned from light green to white and growth was arrested"}]}
{"smiles": "O=C[C@H](O)[C@@H](O)[C@@H](O)[C@H](O)CO", "note": "[galactose]", "values": [{"measurement": "embryo appearance and growth", "setting": "[1]", "value": "turned from light green to white and growth was arrested"}, {"measurement": "effect on embryo survival", "setting": "[2]", "value": "did not improve embryo survival"}, {"measurement": "embryo appearance and growth", "setting": "[2]", "value": "turned from light green to white and growth was arrested"}]}
